Test results from publication PMC9366271 (Journal of medicinal chemistry, 2018).
Entries after “also recorded” stand apart in the source; their conditions may differ.

Columns and labels:
D2R [1] = biological target: D2R (Homo sapiens, UniProt P14416); assay: Dynamic mass redistribution; format: cell-based; settings: 500 nM bivalent compounds or 1 μM spiperone for 30 min, then 100 nM sumanirole
D2R [2] = biological target: D2R (Ovis aries, UniProt A0ACI6R699); format: binding, sheep

Chain of D2R (Homo sapiens, UniProt P14416) (P14416 whole entry): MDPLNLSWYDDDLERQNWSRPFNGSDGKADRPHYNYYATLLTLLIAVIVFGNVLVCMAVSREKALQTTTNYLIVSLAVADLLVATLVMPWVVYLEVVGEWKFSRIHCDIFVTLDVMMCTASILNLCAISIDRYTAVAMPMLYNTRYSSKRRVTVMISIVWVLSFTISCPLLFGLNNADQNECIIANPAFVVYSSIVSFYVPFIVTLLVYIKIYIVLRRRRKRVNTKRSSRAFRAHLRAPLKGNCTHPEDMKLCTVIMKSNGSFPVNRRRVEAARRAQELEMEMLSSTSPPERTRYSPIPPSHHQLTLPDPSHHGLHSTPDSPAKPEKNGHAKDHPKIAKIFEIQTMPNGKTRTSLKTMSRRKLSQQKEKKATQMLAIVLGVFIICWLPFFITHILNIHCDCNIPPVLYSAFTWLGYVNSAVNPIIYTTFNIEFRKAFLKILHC

| magnitude of the signaling by sumanirole in presence of ligand (DMR) (D2R [1]) | decrease of binding by disturber peptide TAT-TM6 (D2R [2]; TAT-TM6 of D2R vs no peptide) [fold] | SMILES | effect of TAT-TM6 peptides on binding (D2R [2]; TAT-TM6 peptides of D2R and A2AR, native tissue) |
| --- | --- | --- | --- |
| significantly decreased | – | COC(=O)CN(CC(=O)NCCCOCCOCCOCCCNC(=O)CCC(=O)Nc1ccc(CCN2CN(c3ccccc3)C3(CCN(CCCC(=O)c4ccc(F)cc4)CC3)C2=O)cc1)CC(=O)NCCCOCCOCCOCCCNC(=O)CCC(=O)Nc1ccc(CCN2CN(c3ccccc3)C3(CCN(CCCC(=O)c4ccc(F)cc4)CC3)C2=O)cc1 [Compound 12, Methyl 24-((4-(2-(8-(4-(4-fluorophenyl)-4-oxobutyl)-4-oxo-1-phenyl-1,3,8-triazaspiro[4.5]decan-3-yl)ethyl)phenyl)amino)-3-(21-((4-(2-(8-(4-(4-fluorophenyl)-4-oxobutyl)-4-oxo-1-phenyl-1,3,8-triazaspiro[4.5]decan-3-yl)ethyl)phenyl)amino)-2,18,21-trioxo-7,10,13-trioxa-3,17-diazahenicosyl)-5,21,24-trioxo-10,13,16-trioxa-3,6,20-triazatetracosanoate] | – |
| significantly decreased | 52 | COC(=O)CN(CC(=O)NCCOCCOCCNC(=O)CCC(=O)Nc1ccc(CCN2CN(c3ccccc3)C3(CCN(CCCC(=O)c4ccc(F)cc4)CC3)C2=O)cc1)CC(=O)NCCOCCOCCNC(=O)CCC(=O)Nc1ccc(CCN2CN(c3ccccc3)C3(CCN(CCCC(=O)c4ccc(F)cc4)CC3)C2=O)cc1 [Compound 13, Methyl 19-((4-(2-(8-(4-(4-fluorophenyl)-4-oxobutyl)-4-oxo-1-phenyl-1,3,8-triazaspiro[4.5]decan-3-yl)ethyl)phenyl)amino)-3-(16-((4-(2-(8-(4-(4-fluorophenyl)-4-oxobutyl)-4-oxo-1-phenyl-1,3,8-triazaspiro[4.5]decan-3-yl)ethyl)phenyl)amino)-2,13,16-trioxo-6,9-dioxa-3,12-diazahexadecyl)-5,16,19-trioxo-9,12-dioxa-3,6,15-triazanonadecanoate] | – |
| – | – | COC(=O)CN(CC(=O)NCCOCCOCCNC(C)=O)CC(=O)NCCOCCOCCNC(=O)CCC(=O)Nc1ccc(CCN2CN(c3ccccc3)C3(CCN(CCCC(=O)c4ccc(F)cc4)CC3)C2=O)cc1 [Compound 15, Methyl 3-(2,13-dioxo-6,9-dioxa-3,12-diazatetradecyl)-19-((4-(2-(8-(4-(4-fluorophenyl)-4-oxobutyl)-4-oxo-1-phenyl-1,3,8-triazaspiro[4.5]decan-3-yl)ethyl)phenyl)amino)-5,16,19-trioxo-9,12-dioxa-3,6,15-triazanonadecanoate] | had no effect; also recorded: Neither TAT-TM6 peptide of D2R nor A2R influenced the binding |

| SMILES | magnitude of the signaling by sumanirole in presence of ligand (DMR) (D2R [1]) | decrease of binding by disturber peptide TAT-TM6 (D2R [2]; TAT-TM6 of D2R vs no peptide) [fold] | effect of TAT-TM6 peptides on binding (D2R [2]; TAT-TM6 peptides of D2R and A2AR, native tissue) |
| --- | --- | --- | --- |
| O=C(CCCN1CCC2(CC1)C(=O)NCN2c1ccccc1)c1ccc(F)cc1 [spiperone, reference compound] | significantly decreased | – | – |
